From PMC10972746, “Substrate-induced condensation activates plant TIR domain proteins” (Nature, 2024)
Numbering of substitutions follows the chain as printed.

Assays:
TX14–GFP [1] = target: T1, TX14–GFP (Arabidopsis thaliana, UniProt F4ISS7); assay: ATP-induced phase separation, confocal microscopy; conditions: 10 uM protein, 25 °C, 30 min; indirect read-out of binding
T1 construct: gene At2g32140; residues 1-351, GFP-tagged, pET-MBP-mGFP vector, E. coli BL21(DE3)
T1 sequence (F4ISS7 1-351): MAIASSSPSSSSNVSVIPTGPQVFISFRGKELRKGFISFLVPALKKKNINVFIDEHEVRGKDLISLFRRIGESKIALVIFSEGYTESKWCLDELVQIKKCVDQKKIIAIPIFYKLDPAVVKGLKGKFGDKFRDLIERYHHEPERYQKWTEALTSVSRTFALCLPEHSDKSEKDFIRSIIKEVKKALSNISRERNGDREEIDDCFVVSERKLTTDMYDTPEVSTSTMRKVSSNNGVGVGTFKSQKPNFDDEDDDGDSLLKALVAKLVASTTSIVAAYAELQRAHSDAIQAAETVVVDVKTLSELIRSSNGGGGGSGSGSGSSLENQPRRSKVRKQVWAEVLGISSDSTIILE

RPP1-TIR–GFP (RPP1-TIR) [2] = target: T2, RPP1-TIR–GFP (RPP1-TIR) (Arabidopsis thaliana, UniProt Q9ZSN5); assay: ATP-induced phase separation, confocal microscopy and turbidity; conditions: 1 mM ATP, 25 uM protein, 5% PEG 3,350, pH 8.0, 25 °C, 30 min; indirect read-out of binding
T2 construct: TIR domain residues 1-254, GFP-tagged, pET-MBP-mGFP vector, E. coli BL21(DE3); an untagged 60-254 form (GST cut, Sf21) was also made
T2 sequence (Q9ZSN5 1-254): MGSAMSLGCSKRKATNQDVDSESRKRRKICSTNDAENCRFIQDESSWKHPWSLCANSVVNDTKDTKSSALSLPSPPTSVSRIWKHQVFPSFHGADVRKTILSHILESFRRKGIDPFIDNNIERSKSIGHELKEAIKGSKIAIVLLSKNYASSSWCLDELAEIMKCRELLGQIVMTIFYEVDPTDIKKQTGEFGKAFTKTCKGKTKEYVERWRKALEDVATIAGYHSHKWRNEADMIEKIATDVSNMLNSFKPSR

RBA1–GFP [3] = target: T3, RBA1–GFP (Arabidopsis thaliana, UniProt F4HT77); assay: ATP-induced phase separation, confocal microscopy; conditions: 10 uM protein, 25 °C, 30 min; indirect read-out of binding
T3 construct: residues 1-191, GFP-tagged, pET-MBP-mGFP vector, E. coli BL21(DE3)
T3 sequence (F4HT77 1-191): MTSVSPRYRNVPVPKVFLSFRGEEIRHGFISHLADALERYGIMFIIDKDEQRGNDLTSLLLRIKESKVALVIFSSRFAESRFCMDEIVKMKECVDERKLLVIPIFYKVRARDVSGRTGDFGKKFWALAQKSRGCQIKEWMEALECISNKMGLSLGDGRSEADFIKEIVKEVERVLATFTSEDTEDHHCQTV

RPP1-TIR–GFP (RPP1-TIR) [4] = target: T2, RPP1-TIR–GFP (RPP1-TIR); assay: NADase assay, HPLC at […] nm; NAD+-induced phase separation by confocal microscopy; type: biochemical; conditions: 100 uM NAD+, 10 mM MgCl2, pH 8.0, 25 °C, 16 h; droplets: 1 mM NAD+, 25 uM protein, 5% PEG 3,350
TX14–GFP [5] = target: T1, TX14–GFP; assay: as above; type: biochemical; conditions: 100 uM NAD+, 10 mM MgCl2, pH 8.0, 25 °C, 16 h; condensates: 10 uM protein, NAD+ 0.2 mM
RBA1–GFP [6] = target: T3, RBA1–GFP; assay: as above; type: biochemical; conditions: 100 uM NAD+, 10 mM MgCl2, pH 8.0, 25 °C, 16 h; condensates: 10 uM protein, NAD+ 0.2 mM
TX14–GFP [7] = target: T4, TX14–GFP (Arabidopsis thaliana, UniProt F4ISS7, S38D); assay: NADase assay, HPLC at […] nm; type: biochemical; conditions: 100 uM NAD+, 10 mM MgCl2, pH 8.0, 25 °C, 16 h; 40 uM protein
T4 construct: gene At2g32140; residues 1-351, GFP-tagged, pET-MBP-mGFP vector, E. coli BL21(DE3)
T4 sequence (F4ISS7 1-351 S38D): T1 sequence (F4ISS7 1-351) with S38D

TX14–GFP [8] = target: T5, TX14–GFP (Arabidopsis thaliana, UniProt F4ISS7, E57A/V58A/R59A/G60A/K61A/D62A); assay: NADase assay, HPLC at […] nm; type: biochemical; conditions: 100 uM NAD+, 10 mM MgCl2, pH 8.0, 25 °C, 16 h
T5 construct: gene At2g32140; residues 1-351, GFP-tagged, pET-MBP-mGFP vector, E. coli BL21(DE3)
T5 sequence (F4ISS7 1-351 E57A/V58A/R59A/G60A/K61A/D62A): T1 sequence (F4ISS7 1-351) with E57A, V58A, R59A, G60A, K61A, D62A

| Compound | ATP-induced phase separation, confocal microscopy (TX14–GFP [1]) | ATP-induced phase separation, confocal microscopy and turbidity (RPP1-TIR–GFP (RPP1-TIR) [2]) | ATP-induced phase separation, confocal microscopy (RBA1–GFP [3]) | NADase assay, HPLC at 260 nm; NAD+-induced phase separation by confocal microsco (RPP1-TIR–GFP (RPP1-TIR) [4]) | NADase assay, HPLC at 260 nm; NAD+-induced phase separation by confocal microsco (TX14–GFP [5]) | NADase assay, HPLC at 260 nm; NAD+-induced phase separation by confocal microsco (RBA1–GFP [6]) | relative NADase activity (TX14–GFP [7]) | relative NADase activity (TX14–GFP [8]) |
| --- | --- | --- | --- | --- | --- | --- | --- | --- |
| Nc1ncnc2c1ncn2[C@@H]1O[C@H](COP(=O)(O)OP(=O)(O)OP(=O)(O)O)[C@@H](O)[C@H]1O [ATP] | ATP and NAD^+/ATP induced phase separation of the TIR domain protein RBA1 and TX14 | ATP induced phase separation of the RPP1-TIR–GFP protein | ATP and NAD^+/ATP induced phase separation of the TIR domain protein RBA1 and TX14 | – | – | – | – | – |
| NC(=O)c1ccc[n+]([C@@H]2O[C@H](COP(=O)(O)OP(=O)(O)OC[C@H]3O[C@@H](n4cnc5c(N)ncnc54)[C@H](O)[C@@H]3O)[C@@H](O)[C@H]2O)c1 [NAD^+] | – | – | – | wild-type RPP1-TIR, RBA1 and TX14 proteins nearly completely consumed the NAD^+ substrate | wild-type RPP1-TIR, RBA1 and TX14 proteins nearly completely consumed the NAD^+ substrate | wild-type RPP1-TIR, RBA1 and TX14 proteins nearly completely consumed the NAD^+ substrate | the mutations of the AE interface impaired the NADase activity of these TIR domain proteins | NAD^+-hydrolysing activity was significantly reduced in the corresponding BB-loop mutant proteins |
